Results on 31 compounds are retold here after ChEMBL document CHEMBL4665886, “Assessing different thiazolidine and thiazole based compounds as antileishmanial scaffolds” (Bioorg Med Chem Lett, 2020).

Structures are written as SMILES.

Series [1] concerns Trypanosoma brucei brucei. Briefly: Antitrypanosomal activity against bloodstream form of Trypanosoma brucei brucei 90-13 assessed as reduction in parasite growth. Format: functional, organism-based.
Series [2] concerns Trypanosoma brucei gambiense. Briefly: Antitrypanosomal activity against bloodstream form of Trypanosoma brucei gambiense Feo assessed as reduction in parasite growth. Format: functional, organism-based.
A further series concerns Leishmania major. Briefly: Antileishmanial activity against Leishmania major FV1 assessed as reduction in parasite growth. Format: functional, organism-based.
A further series has as its system BJ. As to the kind of experiment: Cytotoxicity against human BJ cells after 24 hrs by redox-sensitive dye based fluorescent assay. Format: cell-based.
The next series deals with MRC5. Briefly: Cytotoxicity against human MRC5 cells after 24 hrs by redox-sensitive dye based fluorescent assay. Format: cell-based. Conditions: MRC5, 24 h.
Series [3] in a line: Therapeutic index, ratio of average IC50 for human MRC5 and BJ cells to IC50 for antileishmanial activity against Leishmania major. The format is toxicity. Conditions: MRC5 and BJ cells (average IC50) versus Leishmania major, read-out: TI.

On to `C=CCN1C(=O)C(CC(=O)c2ccc(F)cc2)S/C1=N\N=C\c1ccccc1` (stereo not given), for which the IC50 (usually the concentration needed to halve the response being measured) was above 50 µM in series [1]; above 50 µM in series [2]; 47.5 µM in the series on Leishmania major; 21.5 µM in the series with BJ; 20.1 µM in the series with MRC5. The selectivity ratio in series [3] is 0.45.
On to `CCC1S/C(=N\N=C\c2c(-c3ccc(Cl)cc3)[nH]c3ccccc23)NC1=O` (stereo not given), for which the IC50 in the series on Leishmania major was 22.7 µM; in the series on BJ, 7.45 µM; with MRC5, 8.8 µM. Besides, in series [3], the selectivity ratio is 0.36.
On to `O=C(CC1S/C(=N\N=C\c2c(-c3ccccc3)[nH]c3ccccc23)NC1=O)c1ccccc1` (stereo not given), for which the IC50 in the series with Leishmania major is 9.14 µM; in the series on BJ, above 50 µM; in the series with MRC5, above 50 µM. Further, the selectivity ratio in series [3] is above 5.47.
Consider `CCOC(=O)c1sc(N/N=C/c2c(-c3ccc([N+](=O)[O-])cc3)[nH]c3ccccc23)nc1C`, for which the IC50 in the series on Leishmania major worked out at 7.22 µM; in the series with BJ, 50 µM; in the series with MRC5, 23.5 µM. The selectivity ratio in series [3] came to 5.09.
The corresponding values for `O=C1CS/C(=N\N=C\c2c(-c3ccc(Cl)cc3)[nH]c3ccccc23)N1` are 7.01 µM, above 50 µM, above 50 µM and above 7.13.
With `CCC1S/C(=N\N=C\c2c(-c3ccc(Br)cc3)[nH]c3ccccc23)NC1=O` (stereo not given), the IC50 in the series with Leishmania major amounted to 18.8 µM; in the series with BJ, 7.45 µM; in the series on MRC5 it was 5.91 µM. Further, the selectivity ratio in series [3] amounted to 0.36.
The corresponding values for `O=C1N/C(=N/N=C/c2c(-c3ccc(Br)cc3)[nH]c3ccccc23)SC1CCO` (stereo not given) are 12.8 µM, 29.2 µM, 15.9 µM and 1.75.
With `C=CCSc1nn2c(/C=N/N=C3/NC(=O)C(CCOC(C)=O)S3)c(-c3ccccc3)nc2s1` (stereo not given), the IC50 was found to be 9.81 µM in the series on Leishmania major, 34.9 µM with BJ and 23.2 µM in the series with MRC5. Further, in series [3], the selectivity ratio is 2.96.
The corresponding values for `O=C(CC1S/C(=N\N=C\c2c(-c3ccccc3)[nH]c3ccccc23)NC1=O)c1ccc(F)cc1` (stereo not given) are 8.09 µM, above 50 µM, 49.8 µM and above 6.18.
The corresponding values for `CC(=O)OCCC1S/C(=N\N=C\c2c(-c3ccccc3)[nH]c3ccccc23)NC1=O` (stereo not given) are 3.51 µM, 37.1 µM, 42.8 µM and 11.3.
The like results for `CC1S/C(=N\N=C\c2c(-c3ccc(Br)cc3)[nH]c3ccccc23)NC1=O` (stereo not given) were, in that order, 18.6 µM, above 50 µM, above 50 µM and above 2.7.
On to `C=CCSc1nn2c(C=O)c(-c3ccccc3)nc2s1`, for which the IC50 was 2.34 µM in series [2], 8.94 µM in the series with Leishmania major, above 50 µM in the series with BJ and 35.4 µM with MRC5. In series [3], the selectivity ratio was above 4.78.
As for `O=C1N/C(=N/N=C/c2c(-c3ccc(Cl)cc3)[nH]c3ccccc23)SC1CCO` (stereo not given), the IC50 with Leishmania major stood at 15.7 µM; with BJ, 22.4 µM; in the series with MRC5, 13.2 µM. In addition, the selectivity ratio in series [3] stood at 1.13.
The like results for `CCC1S/C(=N\N=C\c2c(-c3ccc([N+](=O)[O-])cc3)[nH]c3ccccc23)NC1=O` (stereo not given) were, in that order, 14.7 µM, 29.8 µM, 25.2 µM and 1.87.
The corresponding values for `CCC1S/C(=N\N=C\c2c(-c3ccccc3)[nH]c3ccccc23)NC1=O` (stereo not given) are 1.12 µM, above 50 µM, above 50 µM and above 44.6.
The like results for `O=C1CS/C(=N\N=C\c2c(-c3ccccc3)[nH]c3ccccc23)N1` were, in that order, 1.73 µM, above 50 µM, above 50 µM and above 29.1.
Consider `CC1S/C(=N\N=C\c2c(-c3ccccc3)[nH]c3ccccc23)NC1=O` (stereo not given), for which the IC50 with Leishmania major is 1.01 µM; in the series with BJ, above 50 µM; in the series on MRC5 it was above 50 µM. The selectivity ratio in series [3] was above 48.1.
In the case of `CCOC(=O)c1sc(N/N=C/c2c(-c3ccc(Cl)cc3)[nH]c3ccccc23)nc1C`, the values for the IC50 in the series with Leishmania major, in the series on BJ and in the series on MRC5 were 12 µM, above 50 µM and 25.2 µM, respectively. Further, the selectivity ratio in series [3] is above 2.49.
Regarding `CCOC(=O)C(Cc1ccccc1)N1C(=O)/C(=C/Nc2ncc(Cc3ccc(Cl)cc3Cl)s2)SC1=S` (stereo not given), the IC50 in series [1] is 2.36 µM; in series [2], 1.85 µM; with Leishmania major, 15.2 µM; with BJ it was above 50 µM; with MRC5, above 50 µM. Moreover, in series [3], the selectivity ratio is above 3.3.
As for `C[C@@H]1CC[C@@H]2[C@@H](C1)c1sc(=O)n(CC(=O)Nc3ccccc3)c1SC2(C)C`, the IC50 was 10.2 µM in series [1], 8.68 µM with Leishmania major, above 50 µM with BJ and above 50 µM in the series with MRC5. The selectivity ratio in series [3] is above 5.76.
As for `O=C(CC1S\C(=N/N=C\C=C\c2ccccc2)N(Cc2ccco2)C1=O)Nc1cccc(C(F)(F)F)c1` (stereo not given), the IC50 was above 50 µM in series [1]; above 50 µM in series [2]; 18.4 µM in the series with Leishmania major; 15.6 µM in the series on BJ; 12 µM in the series on MRC5. The selectivity ratio in series [3] was 0.75.
As for `O=C1CS/C(=N/N=C/c2c(-c3ccc(Cl)cc3)[nH]c3ccccc23)N1Cc1ccco1`, the IC50 in series [2] came to 7.31 µM; in the series on Leishmania major, 12.6 µM; with BJ, 8.07 µM; in the series on MRC5, 10.8 µM. Further, the selectivity ratio in series [3] came out at 0.75.
For `C[C@@H]1CC[C@@H]2[C@@H](C1)c1sc(=O)n(CC(=O)Nc3ccc(S(N)(=O)=O)cc3)c1SC2(C)C`, the IC50 in series [1] is 14.2 µM; in the series on Leishmania major, 19.8 µM; with BJ, above 50 µM; with MRC5, above 50 µM. Also, the selectivity ratio in series [3] is above 2.53.
On to `C[C@@H]1CC[C@@H]2[C@@H](C1)c1sc(=O)n(CC(=O)Nc3ccccc3C(F)(F)F)c1SC2(C)C`, for which the IC50 is 8.5 µM in series [1], 18 µM with Leishmania major, above 50 µM with BJ and above 50 µM in the series with MRC5. Moreover, the selectivity ratio in series [3] was above 2.78.
In the case of `C=CCN1C(=O)C(CC(=O)c2ccc(F)cc2)S/C1=N\N=C1\CC2CCC1(C)C2(C)C` (stereo not given), the IC50 in series [1] was above 50 µM; in series [2], above 50 µM; in the series with Leishmania major, 15.3 µM; with BJ, above 50 µM; with MRC5 it was above 50 µM. The selectivity ratio in series [3] is above 3.28.
`C[C@@H]1CC[C@@H]2[C@@H](C1)c1sc(=O)n(CCC#N)c1SC2(C)C`: the IC50 was 14.8 µM in the series on Leishmania major, above 50 µM with BJ and above 50 µM in the series on MRC5. Further, in series [3], the selectivity ratio was above 3.38.
Turning to `CCOC(=O)C(Cc1ccccc1)N1C(=O)/C(=C/Nc2nccs2)SC1=S` (stereo not given), the IC50 in series [1] is 9.65 µM; in series [2], 13.4 µM; in the series with Leishmania major, 28.8 µM; in the series with BJ it was above 50 µM; in the series with MRC5, above 50 µM. The selectivity ratio in series [3] is above 1.73.
Regarding `CCc1nn2c(C=O)c(-c3ccc([N+](=O)[O-])cc3)nc2s1`, the results for the IC50 in the series on Leishmania major, in the series on BJ and in the series on MRC5 were 30.4 µM, above 50 µM and above 50 µM, respectively. In series [3], the selectivity ratio was above 1.65.
`C[C@@H]1CC[C@@H]2[C@@H](C1)c1sc(=O)n(CC(=O)Nc3cccc(C(F)(F)F)c3)c1SC2(C)C`: the IC50 in series [1] is 2.97 µM; with Leishmania major, 14.4 µM; in the series on BJ, above 50 µM; in the series with MRC5, above 50 µM. In addition, the selectivity ratio in series [3] was above 3.47.
For `C[C@@H]1[C@H](O)[C@@H](C)/C=C/C=C/C=C/C=C/C=C/C=C/C=C/[C@H](O[C@@H]2O[C@H](C)[C@@H](O)[C@H](N)[C@@H]2O)C[C@@H]2O[C@](O)(C[C@@H](O)C[C@@H](O)[C@H](O)CC[C@@H](O)C[C@@H](O)CC(=O)O[C@H]1C)C[C@H](O)[C@H]2C(=O)O` [AMPHOTERICIN B], the IC50 in the series on Leishmania major was 0.5 µM; in the series with BJ, above 50 µM; with MRC5, above 50 µM. Also, the selectivity ratio in series [3] is above 100.
For `CCCCCCCCCCCCCCCCOP(=O)([O-])OCC[N+](C)(C)C` [MILTEFOSINE], the IC50 was 8.18 µM with Leishmania major, above 50 µM with BJ and above 50 µM in the series on MRC5. Besides, the selectivity ratio in series [3] is above 6.11.
